# ChEMBL document CHEMBL1201862, “PubChem BioAssay data set” (2004)
#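 The compound was tested at five concentrations on cells cultured in 96-well plates, with a 48-hour exposure period. The concentration for 50% growth inhibition is given as GI50.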 Activity calls are given as the source filed them. No stated cut-off is given here; in the data, active = GI50 up to about 1.1 µM and inactive = higher.
# Experiments:
# Experiment in all cases: NCI tumour cell line growth inhibition, 48 h
# KM12 = test system: KM12
# M14 = test system: M14
# TK-10 = test system: TK-10
# SW-620 = test system: SW-620
# RPMI-8226 = test system: RPMI-8226
# OVCAR-4 = test system: OVCAR-4
# NCI/ADR-RES = test system: NCI/ADR-RES
# HOP-62 = test system: HOP-62
# NCI-H522 = test system: NCI-H522
# HT-29 = test system: HT-29
# MCF7 = test system: MCF7
# U-251 = test system: U-251
# UACC-257 = test system: UACC-257
# OVCAR-8 = test system: OVCAR-8
# SF-539 = test system: SF-539
# Hs-578T = test system: Hs-578T
# HCT-116 = test system: HCT-116
# MOLT-4 = test system: MOLT-4
# SK-MEL-2 = test system: SK-MEL-2
# SF-268 = test system: SF-268
# SF-295 = test system: SF-295
# EKVX = test system: EKVX
# DU-145 = test system: DU-145
# HCC 2998 = test system: HCC 2998
# UACC-62 = test system: UACC-62
# MDA-MB-231 = test system: MDA-MB-231
# CAKI-1 = test system: CAKI-1
# NCI-H23 = test system: NCI-H23
# A549 = test system: A549
# ACHN = test system: ACHN
# COLO 205 = test system: COLO 205
# HL-60 = test system: HL-60
# MDA-MB-435 = test system: MDA-MB-435
# SN12C = test system: SN12C
# CCRF-CEM = test system: CCRF-CEM
# NCI-H460 = test system: NCI-H460
# SNB-75 = test system: SNB-75
# MDA-N = test system: MDA-N
# SNB-19 = test system: SNB-19
# OVCAR-5 = test system: OVCAR-5
# K562 = test system: K562
# HOP-92 = test system: HOP-92
# T47D = test system: T47D
# OVCAR-3 = test system: OVCAR-3
# LOX IMVI = test system: LOX IMVI
# BT-549 = test system: BT-549
# HCT-15 = test system: HCT-15
# SK-MEL-28 = test system: SK-MEL-28
# SR = test system: SR
# IGROV-1 = test system: IGROV-1
# UO-31 = test system: UO-31
# 786-0 = test system: 786-0
# PC-3 = test system: PC-3
# SK-MEL-5 = test system: SK-MEL-5
structure (smiles),measurement,setting,value
CS(=O)(=O)C[S+]([O-])C[S+]([O-])C[S+]([O-])CC(NC(=O)CCC(N)C(=O)O)C(=O)O (centres undefined),GI50,KM12,> 100 µM (inactive)
same,GI50,M14,> 100 µM (inactive)
same,GI50,TK-10,> 100 µM (inactive)
same,GI50,SW-620,> 100 µM (inactive)
same,GI50,RPMI-8226,> 100 µM (inactive)
same,GI50,OVCAR-4,> 100 µM (inactive)
same,GI50,NCI/ADR-RES,> 100 µM (inactive)
same,GI50,HOP-62,> 100 µM (inactive)
same,GI50,NCI-H522,> 100 µM (inactive)
same,GI50,HT-29,> 100 µM (inactive)
same,GI50,MCF7,> 100 µM (inactive)
same,GI50,U-251,> 100 µM (inactive)
same,GI50,UACC-257,> 100 µM (inactive)
same,GI50,OVCAR-8,> 100 µM (inactive)
same,GI50,SF-539,> 100 µM (inactive)
same,GI50,Hs-578T,51.8 µM (inactive)
same,GI50,HCT-116,> 100 µM (inactive)
same,GI50,MOLT-4,> 100 µM (inactive)
same,GI50,SK-MEL-2,> 100 µM (inactive)
same,GI50,SF-268,> 100 µM (inactive)
same,GI50,SF-295,> 100 µM (inactive)
same,GI50,EKVX,> 100 µM (inactive)
same,GI50,DU-145,> 100 µM (inactive)
same,GI50,HCC 2998,> 100 µM (inactive)
same,GI50,UACC-62,> 100 µM (inactive)
same,GI50,MDA-MB-231,> 100 µM (inactive)
same,GI50,CAKI-1,> 100 µM (inactive)
same,GI50,NCI-H23,> 100 µM (inactive)
same,GI50,A549,> 100 µM (inactive)
same,GI50,ACHN,> 100 µM (inactive)
same,GI50,COLO 205,> 100 µM (inactive)
same,GI50,HL-60,32.8 µM (inactive)
same,GI50,MDA-MB-435,> 100 µM (inactive)
same,GI50,SN12C,> 100 µM (inactive)
same,GI50,CCRF-CEM,> 100 µM (inactive)
same,GI50,NCI-H460,> 100 µM (inactive)
same,GI50,SNB-75,> 100 µM (inactive)
same,GI50,MDA-N,> 100 µM (inactive)
same,GI50,SNB-19,> 100 µM (inactive)
same,GI50,OVCAR-5,> 100 µM (inactive)
same,GI50,K562,> 100 µM (inactive)
same,GI50,HOP-92,> 100 µM (inactive)
same,GI50,T47D,> 100 µM (inactive)
same,GI50,OVCAR-3,> 100 µM (inactive)
same,GI50,LOX IMVI,> 100 µM (inactive)
same,GI50,BT-549,> 100 µM (inactive)
same,GI50,HCT-15,> 100 µM
same,GI50,SK-MEL-28,> 100 µM (inactive)
same,GI50,SR,16.3 µM (inactive)
same,GI50,IGROV-1,> 100 µM (inactive)
same,GI50,UO-31,> 100 µM (inactive)
same,GI50,786-0,> 100 µM (inactive)
same,GI50,PC-3,> 100 µM (inactive)
same,GI50,SK-MEL-5,> 100 µM (inactive)
